5 molecules from US8993552B2, “Compositions and methods for treatment of leukemia” (The Regents of The University of Michigan, priority 2009, dated 2015) can be followed below.

Entries after “also recorded” stand apart in the source; their conditions may differ. Like-named read-outs stand apart in the source and are kept apart here.

One data set has as its system HK-2 (kidney) cell line. Kind of data set: MTT viability assay, kidney cell line.
Data set [1] can be described thus: Solubility (stated in words). The class given is physicochemical. Particulars: relative to Compound 1, in words.
Data set [2] has as its system human leukemia cell lines with MLL translocations (MV4;11, ML-2, KOPN-8, Karpas 45). The data set can be described thus: ATP-based luminescence cell viability assay in MLL leukemia cell lines. Particulars: range over MLL leukemia cell lines.
The test system of the next data set is Hep-G2 (liver) cell line. The data set can be described thus: MTT viability assay, liver cell line. Background: Formazan colour is commonly taken as a measure of viable cells.
A further data set has as its system MV4;11 cells (MLL-AF4). The data set can be described thus: Annexin V/PI staining flow cytometry. In general terms: A flow cytometer gives signals particle by particle.
In the next data set the test system is THP-1 cells (MLL-AF9). The data set can be described thus: Annexin V/PI staining flow cytometry.
A further data set has as its system Hoxa9 promoter. The data set can be described thus: Luciferase reporter assay in HEK293 cells transfected with MLL-AF9. In general terms: A reporter such as luciferase makes a cellular process visible.
Data set [3] has as its system human leukemia cell lines with MLL translocations (MV4;11, KOPN-8, THP-1, MonoMac6). Kind of data set: MTT viability assay in MLL leukemia cell lines. The class given is cell-based. The following applies: in words.
For data set [4], the target named is T1, menin-MLL interaction (Homo sapiens (Human), UniProt O00255). Kind of data set: Fluorescence polarization (FP) competition assay with fluorescein-labeled MLL peptide.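 Note: Read-out is fluorescence anisotropy of fluorescein-labeled MLL peptide bound to menin, inhibitors displace the peptide and lower anisotropy.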 In kind it is binding.
T1 sequence (O00255 whole entry): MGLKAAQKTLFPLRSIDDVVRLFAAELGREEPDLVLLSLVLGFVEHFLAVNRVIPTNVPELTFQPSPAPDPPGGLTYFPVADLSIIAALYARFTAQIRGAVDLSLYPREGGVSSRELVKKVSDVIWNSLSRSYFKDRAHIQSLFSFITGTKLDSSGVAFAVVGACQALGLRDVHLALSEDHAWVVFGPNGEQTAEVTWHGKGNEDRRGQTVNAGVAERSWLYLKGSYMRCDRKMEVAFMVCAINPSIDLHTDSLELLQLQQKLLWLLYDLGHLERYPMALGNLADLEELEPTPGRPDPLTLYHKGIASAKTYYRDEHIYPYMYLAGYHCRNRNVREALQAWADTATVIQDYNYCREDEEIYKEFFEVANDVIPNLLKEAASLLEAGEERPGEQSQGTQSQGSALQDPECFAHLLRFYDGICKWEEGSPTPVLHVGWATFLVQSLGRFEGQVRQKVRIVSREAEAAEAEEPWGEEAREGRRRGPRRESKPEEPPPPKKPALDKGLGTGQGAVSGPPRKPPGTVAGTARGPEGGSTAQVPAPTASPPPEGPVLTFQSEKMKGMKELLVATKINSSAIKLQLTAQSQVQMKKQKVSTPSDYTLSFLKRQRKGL
Data set [5] has as its target T1, menin-MLL interaction. The following applies: 50 μM and 25 μM compound, vs DMSO control.
The next data set concerns THP-1 leukemia cells. The data set can be described thus: Differentiation of THP-1 cells, CD11b by flow cytometry. In kind it is cell-based, human. From the text:
Thienopyrimidine and benzodiazepine compounds induce differentiation of the MLL leukemia cells.

The target in data set [6] is T1, menin-MLL interaction. The data set can be described thus: HTRF (TR-FRET) assay, His-tagged menin and biotinylated MLL peptide. The class given is binding. The following applies: Table 3.
In data set [7] the test system is Hoxa9 and Meis1 expression. The data set can be described thus: qRT-PCR of MLL downstream targets in THP-1 cells.
The test system of data set [8] is mouse bone marrow transduced with E2A-HLF. The data set can be described thus: MTT viability assay, transduced mouse bone marrow (negative control). In kind it is cell-based.
Data set [9] relates to non-MLL leukemia cell lines (Kasumi-1, ME-1). The data set can be described thus: MTT viability assay in non-MLL leukemia cell lines. In kind it is cell-based, human. The following applies: Kasumi-1 (AML1-ETO), ME-1 (CBFβ-SMMHC).
In data set [10] the test system is mouse bone marrow transduced with MLL-ENL. The data set can be described thus: MTT viability assay, transduced mouse bone marrow. In kind it is cell-based. The source says:
(§1) Effects of thienopyrimidine compounds on mouse bone marrow transduced with MLL-AF9 and MLL-ENL.

The subject of data set [11] is mouse bone marrow transduced with MLL-AF9. The data set can be described thus: MTT viability assay, transduced mouse bone marrow. In kind it is cell-based.
Source text: as §1

[12] abbreviates: Table 3, NA = no activity, read-out: IC50 in FP assay with FLSN-MLL.

One may read the GI50 as the concentration at which growth is held to half of that of the control. Take `CCc1cc2c(N3CCN(c4nnc(CC)s4)CC3)ncnc2s1` [Compound 4]: the “toxicity in viability assay” value with HK-2 (kidney) cell line is “no substantial signs of toxicity”; in the data set on HK-2 (kidney) cell line (listed as Compounds 4), “no signs of substantial toxicity”; in the data set on Hep-G2 (liver) cell line, “no substantial signs of toxicity”; in the data set with Hep-G2 (liver) cell line (listed as Compounds 4) it was “no signs of substantial toxicity”. In addition, the solubility result in [1] is on record as “improved solubility”. Also, the GI50 in [2] lay within 7 to 25 µM.

Broadly, the IC50 is the concentration at which inhibition is half-maximal. Take `CC(=O)N1c2ccccc2NC2=C(C(=O)CC(c3ccc(C(C)(C)C)cc3)C2)C1c1cccnc1` (stereo not drawn) [Compound 32]: the apoptotic cells was over 20% in the data set on MV4;11 cells (MLL-AF4) (25 μM) and “about 20%” with THP-1 cells (MLL-AF9) (50 μM). The results for the dead cells with MV4;11 cells (MLL-AF4) (25 μM) and in the data set on THP-1 cells (MLL-AF9) (50 μM) were over 20% and over 40%, respectively. For the same molecule, the “induction of apoptosis and cell death” value is “substantial apoptosis and cell death” in the data set on MV4;11 cells (MLL-AF4) (25 μM and 50 μM, in words); “substantial apoptosis and cell death” with THP-1 cells (MLL-AF9) (25 μM and 50 μM, in words). The “transactivation of the Hoxa9 promoter” value in the data set with Hoxa9 promoter is “effectively inhibit; also recorded: dose dependent inhibition”. Moreover, the “growth inhibition of MLL leukemia cells” value in data set [3] is “substantial growth inhibition; also recorded: strongly inhibited growth”. Further, the half-inhibitory concentration (IC50) at menin-MLL interaction [4] (setting [12]) is 13 µM; at menin-MLL interaction [4] (re-tested by FP and HTRF, read-out: IC50 for inhibition of the menin-MLL interaction), 13 µM; on menin-MLL interaction [6] it was 7 µM. Moreover, the “inhibition of the menin-MLL interaction in cells (co-IP)” value (from here on “inhibition of the menin-MLL interaction”) against menin-MLL interaction [5] is “effectively inhibit”. The “toxicity in viability assay” value with HK-2 (kidney) cell line and with Hep-G2 (liver) cell line was “no signs of substantial toxicity” each time. Moreover, the “expression of CD11b on the cell surface” value in the data set with THP-1 leukemia cells was “increased expression of CD11b”.

Regarding `O=C1CC(c2ccc3c(c2)OCO3)CC2=C1C(c1ccncc1)Nc1ccccc1N2` (stereo not drawn) [Compound 39], the “transactivation of the Hoxa9 promoter” value with Hoxa9 promoter is reported as “No effect”. Moreover, the “growth inhibition of MLL leukemia cells” value in data set [3] is given as “no effect; also recorded: no growth inhibition”. Also, the IC50 on menin-MLL interaction [4] (setting [12]) stood at 230 µM.

As for `CC(C)c1cc2c(N3CCN(C4=NCC(C)(C)S4)CC3)ncnc2s1` [Compound 67], the IC50 at menin-MLL interaction [4] (Table 2, FP assay, read-out: IC50) amounted to 0.65 µM. Moreover, the “in vitro activity in FP assay relative to parent Compound 1” value at menin-MLL interaction [4] (in words) is “more potent activity”. For the same molecule, at menin-MLL interaction [5], the “inhibition of the menin-MLL interaction” value is recorded as “effectively inhibit”. For the same molecule, in the data set on THP-1 leukemia cells, the “expression of CD11b on the cell surface” value is “increased expression of CD11b”.

For `CCCc1cc2c(N3CCN(C4=NCC(C)(C)S4)CC3)ncnc2s1` [Compound 70], the “expression level of Hoxa9 and Meis1” value in data set [7] is listed as “Downregulation”. Also, the results for the “inhibition of cell growth” value in data set [8], in data set [10] and in data set [11] were “no significant inhibition of cell growth”, “substantial inhibition of cell growth” and “substantial inhibition of cell growth”, respectively. Further, the “growth inhibition of MLL leukemia cells” value in [3] is listed as “Very effective growth inhibition”. Further, at menin-MLL interaction [5], the “inhibition of the menin-MLL interaction” value is recorded as “effectively inhibit”. For the same molecule, the “expression of CD11b on the cell surface” value with THP-1 leukemia cells was “increased expression of CD11b”. In addition, the “effect on growth of non-MLL leukemia cell lines” value in [9] is given as “no effect on the cell growth”.
